Results as given in patent US20150306096A1, “8'-HYDROXY-DIHYDROERGOTAMINE COMPOUNDS AND COMPOSITIONS” (MAP Pharmaceuticals, Inc., priority 2012, published 2015).
Read-outs that look alike come from different tables or passages of the source.

Key:
[1] = target: T1, human Serotonin 5-HT1F receptor (Homo sapiens, UniProt P30939); assay: cAMP HTRF functional assay (agonist/antagonist); type: cell-based
T1 construct: expressed in transfected cells; host or cells: CHO-K1
Procedure: (§1) Functional profiling of agonist and antagonist activities of 8′-OH DHE on human Adrenergic α1D, Dopamine D2L, and Serotonin 5-HT1B, 5-HT1D, 5-HT1F, 5-HT3, 5-HT4e and 5-HT5A receptors (compared against the parent (DHE) molecule) was carried out as follows.
(§2) The SPA 35S-GTPγS tests were conducted with Euroscreen membrane preparations […]. The HTRF assays were conducted with recombinant cell lines. The receptor accession numbers, cellular background and reference compounds are as reported below in Table 10.
(§3) (4) DHE and 8′-OH DHE were tested for agonist and antagonist activity at the human Serotonin 5-HT1F and Serotonin 5-HT4E receptors using cAMP HTRF assay (in triplicate) at the following nanomolar concentrations: […]
(§4) Agonist activity of the test compounds was expressed as a percentage of the activity of the reference agonist at its EC100 concentration. Antagonist activity of the test compounds was expressed as a percentage of the inhibition of the reference agonist activity at its EC80 concentration. Dose-response data from the test compounds were analyzed with XLfit (IDBS) software using nonlinear regression applied to a sigmoidal dose-response model and the following equation: […]

[2] = target: T2, human Adrenergic α1D receptor (Homo sapiens, UniProt P25100); assay: Aequorin functional assay (agonist/antagonist); type: cell-based
T2 construct: expressed in transfected cells; host or cells: CHO-K1 or HEK-293, coexpressing mitochondrial apoaequorin
Procedure: as §1, §2
(§5) (1) DHE and 8′-OH DHE were tested for agonist and antagonist activity at the human Adrenergic α1D, Serotonin 5-HT3 and Serotonin 5-HT5A receptors using aequorin assay (in triplicate) at the following nanomolar concentrations:
(§6) (5) DHE was tested for agonist and antagonist activity at the human Adrenergic α1D, Serotonin 5-HT3 and Serotonin 5-HT5A receptors using aequorin assay (in triplicate), and at the human Dopamine D2L, Serotonin 5-HT1F and Serotonin 5-HT4E receptors using cAMP HTRF assay (in triplicate) at the following nanomolar concentrations:
(§7) (6) 8′-OH DHE was tested for agonist and antagonist activity at the human Adrenergic α1D, Serotonin 5-HT3 and Serotonin 5-HT5A receptors using aequorin assay (in triplicate), at the human Dopamine D2L, Serotonin 5-HT1F and Serotonin 5-HT4E receptors using cAMP HTRF assay (in triplicate), and at the human Serotonin 5-HT1B and Serotonin 5-HT1D receptors using GTPγS assay (in triplicate) at the following nanomolar concentrations:
(§8) CHO-K1 or HEK-293 cells coexpressing mitochondrial apoaequorin and recombinant human […], or recombinant human Serotonin 5-HT3 receptor, or recombinant human Serotonin 5-HT5A receptor grown to mid-log phase in culture media without antibiotics were detached with PBS-EDTA, centrifuged and resuspended in assay buffer (DMEMHAM's F12 with HEPES, without phenol red+0.1% BSA protease free) at a concentration of 1×10^6 cells/mL. Cells were incubated at RT for at least 4 hours with coelenterazine h. The reference agonist was tested to evaluate performance of the assay on each day of the test and to determine EC50. For agonist testing, 50 μL of cell suspension was mixed with 50 μL of test compound or reference agonist in a 96-well plate. The resulting emission of light was recorded using Hamamatsu Functional Drug Screening System 6000 (FDSS 6000 luminometer). For antagonist testing, 100 μL of the reference agonist at its EC80 was injected on the mix of cells and test compounds, following an incubation of 15 minutes after the first injection. The resulting emission of light was recorded using the FDSS 6000 luminometer. To standardize the emission of recorded light (determination of the ‘100% signal’) across plates and across different experiments, some of the wells contained 100 μM digitonin or a saturating concentration of ATP (20 μM).
as §4

[3] = target: T3, human Serotonin 5-HT3 receptor (Homo sapiens, UniProt P46098); assay: Aequorin functional assay (agonist/antagonist); type: cell-based
T3 construct: expressed in transfected cells; host or cells: CHO-K1 or HEK-293, coexpressing mitochondrial apoaequorin
Procedure: as §1, §2, §5, §6, §7, §8, §4

[4] = target: T4, human Serotonin 5-HT5A receptor (Homo sapiens, UniProt P47898); assay: Aequorin functional assay (agonist/antagonist); type: cell-based
T4 construct: expressed in transfected cells; host or cells: CHO-K1 or HEK-293, coexpressing mitochondrial apoaequorin
Procedure: as §1, §2, §5, §6, §7, §8, §4

[5] = target: T5, human Serotonin 5-HT4e receptor (Homo sapiens, UniProt Q13639); assay: cAMP HTRF functional assay (agonist/antagonist); type: cell-based
T5 construct: expressed in transfected cells; host or cells: CHO-K1 (transient)
Procedure: as §1, §2, §3, §4

[6] = cited from earlier work

T3 sequence (P46098 24-478): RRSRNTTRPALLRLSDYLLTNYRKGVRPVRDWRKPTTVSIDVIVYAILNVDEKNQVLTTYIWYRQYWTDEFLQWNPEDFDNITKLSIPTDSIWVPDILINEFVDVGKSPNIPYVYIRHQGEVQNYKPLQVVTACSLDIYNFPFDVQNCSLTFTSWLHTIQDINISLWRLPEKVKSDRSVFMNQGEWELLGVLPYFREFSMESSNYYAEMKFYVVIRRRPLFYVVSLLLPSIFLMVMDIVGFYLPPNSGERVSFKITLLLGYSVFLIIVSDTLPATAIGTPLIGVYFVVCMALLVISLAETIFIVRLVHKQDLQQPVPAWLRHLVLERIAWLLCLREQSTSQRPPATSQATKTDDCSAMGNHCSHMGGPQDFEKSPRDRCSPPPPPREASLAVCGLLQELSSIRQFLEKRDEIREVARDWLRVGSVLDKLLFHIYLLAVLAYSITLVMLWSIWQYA
T4 sequence (P47898 whole entry): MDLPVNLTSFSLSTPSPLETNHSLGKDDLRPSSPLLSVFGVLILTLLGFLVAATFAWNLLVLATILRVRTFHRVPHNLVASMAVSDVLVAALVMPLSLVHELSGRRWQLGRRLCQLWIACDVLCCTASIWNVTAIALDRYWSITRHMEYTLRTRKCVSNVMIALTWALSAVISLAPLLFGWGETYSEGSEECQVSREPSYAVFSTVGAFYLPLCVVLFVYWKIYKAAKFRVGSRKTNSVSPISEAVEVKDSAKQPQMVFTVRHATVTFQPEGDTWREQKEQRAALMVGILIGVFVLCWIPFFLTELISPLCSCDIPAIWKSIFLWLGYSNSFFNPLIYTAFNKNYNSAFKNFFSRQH
T2 sequence (P25100 whole entry): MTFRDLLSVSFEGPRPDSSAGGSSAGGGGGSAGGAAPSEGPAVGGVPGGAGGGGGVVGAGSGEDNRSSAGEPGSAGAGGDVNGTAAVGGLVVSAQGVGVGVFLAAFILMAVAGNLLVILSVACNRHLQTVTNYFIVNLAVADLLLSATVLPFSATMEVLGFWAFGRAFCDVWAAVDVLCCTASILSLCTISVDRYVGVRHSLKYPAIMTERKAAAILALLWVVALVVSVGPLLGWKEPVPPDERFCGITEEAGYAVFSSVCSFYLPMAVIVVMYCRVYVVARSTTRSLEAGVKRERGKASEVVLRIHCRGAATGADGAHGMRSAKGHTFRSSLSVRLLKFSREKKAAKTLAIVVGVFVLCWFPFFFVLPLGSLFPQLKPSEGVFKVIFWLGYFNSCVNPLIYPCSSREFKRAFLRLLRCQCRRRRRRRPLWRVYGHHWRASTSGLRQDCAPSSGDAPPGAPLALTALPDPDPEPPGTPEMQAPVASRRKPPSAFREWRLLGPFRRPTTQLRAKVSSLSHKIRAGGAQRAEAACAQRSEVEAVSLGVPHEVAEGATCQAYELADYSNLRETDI
T1 sequence (P30939 whole entry): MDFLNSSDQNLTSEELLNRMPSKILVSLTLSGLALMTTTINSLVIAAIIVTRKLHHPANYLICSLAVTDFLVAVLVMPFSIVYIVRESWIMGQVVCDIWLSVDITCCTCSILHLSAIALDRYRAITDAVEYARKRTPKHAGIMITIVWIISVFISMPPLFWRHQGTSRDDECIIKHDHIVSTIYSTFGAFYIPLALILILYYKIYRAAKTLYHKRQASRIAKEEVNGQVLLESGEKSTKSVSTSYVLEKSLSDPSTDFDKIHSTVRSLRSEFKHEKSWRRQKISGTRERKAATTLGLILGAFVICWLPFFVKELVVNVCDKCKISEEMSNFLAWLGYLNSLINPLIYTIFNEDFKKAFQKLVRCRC
T5 sequence (Q13639 1-378 isoform Q13639-5): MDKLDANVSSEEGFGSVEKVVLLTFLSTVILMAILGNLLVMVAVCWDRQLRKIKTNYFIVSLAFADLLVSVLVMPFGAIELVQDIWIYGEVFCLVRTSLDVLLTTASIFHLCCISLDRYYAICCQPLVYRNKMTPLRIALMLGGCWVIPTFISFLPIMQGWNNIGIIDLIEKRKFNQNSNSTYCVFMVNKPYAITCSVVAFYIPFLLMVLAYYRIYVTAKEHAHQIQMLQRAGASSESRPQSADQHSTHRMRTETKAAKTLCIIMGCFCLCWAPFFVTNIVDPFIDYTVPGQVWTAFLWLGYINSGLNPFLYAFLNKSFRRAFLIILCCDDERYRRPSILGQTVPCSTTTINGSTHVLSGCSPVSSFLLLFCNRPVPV

CN1C[C@H](C(=O)N[C@]2(C)O[C@@]3(O)[C@@H]4CCC(O)N4C(=O)[C@H](Cc4ccccc4)N3C2=O)C[C@@H]2c3cccc4[nH]cc(c34)C[C@H]21 (stereo partly drawn) [8′-OH DHE, 8′-Hydroxy-Dihydroergotamine]
Agonist and antagonist activity [1]: inactive | IC50 ([2]; Adrenergic α1D, aequorin, vs reference agonist at EC80, read-out: Functional activity (antagonist)): 0.61 nM | IC50 ([3]; Serotonin 5-HT3, aequorin, read-out: Functional activity (antagonist)): > 10000 nM | IC50 ([4]; Serotonin 5-HT5A, aequorin, read-out: Functional activity (antagonist)): 73.3 nM | EC50 ([5]; Serotonin 5-HT4e, cAMP HTRF, read-out: Functional activity (agonist)): 109 nM | metabolite concentration relative to parent DHE ([6]; previous studies): 5 to 7 times

CN1C[C@H](C(=O)N[C@]2(C)O[C@@]3(O)[C@@H]4CCCN4C(=O)[C@H](Cc4ccccc4)N3C2=O)C[C@@H]2c3cccc4[nH]cc(c34)C[C@H]21 [DHE, Dihydroergotamine]
Agonist and antagonist activity [1]: inactive | IC50 [2]: 1.32 nM | IC50 [3]: 3850 nM | IC50 [4]: 48.8 nM | EC50 [5]: 105 nM | serum half-life ([6]; serum): 10 to 13 h
